Patent publication US20100240645A1, “COMBINATION OF CHECKPONIT KINASE (CHK) AND TELANGIECTASIA MUTATED (ATM) INHIBITORS FOR THE TREATMENT OF CANCER” (ASTRAZENECA AB, priority 2007, published 2010)
Read-outs that look alike come from different tables or passages of the source.

Key:
SW620 cell line = assay: MTS colorimetric cell viability assay, CHK-ATM combination, SW620; settings: for IC50: Homo sapiens
NCI-H460dnp53 cell line = assay: MTS colorimetric cell viability assay, CHK-ATM combination, NCI-H460dnp53

Row | IC50 (SW620 cell line; SW-620, 96 h, read-out: IC50 of ATM inhibitor, ATM inhibitor + CHK inhibitor Simultaneous) [µM] | IC50 (SW620 cell line; SW-620, read-out: IC50 of ATM inhibitor alone) [µM] | IC50 (SW620 cell line; SW-620, read-out: IC50 of ATM inhibitor, ATM inhibitor followed by CHK inhibitor) [µM] | IC50 (SW620 cell line; SW-620, read-out: IC50 of ATM inhibitor, CHK inhibitor followed by ATM inhibitor) [µM] | IC50 (NCI-H460dnp53 cell line; 96 h, read-out: IC50 of ATM inhibitor, ATM inhibitor + CHK inhibitor Simultaneous) [µM] | IC50 (NCI-H460dnp53 cell line; read-out: IC50 of ATM inhibitor alone) [µM] | IC50 (NCI-H460dnp53 cell line; read-out: IC50 of ATM inhibitor, ATM inhibitor followed by CHK inhibitor) [µM] | IC50 (NCI-H460dnp53 cell line; read-out: IC50 of ATM inhibitor, CHK inhibitor followed by ATM inhibitor) [µM] | SMILES | activity of CHK inhibitor as a single agent at the constant concentration used (SW620 cell line; SW620, 0.28 uM, single agent, previously determined) | activity of CHK inhibitor as a single agent at the constant concentration used (NCI-H460dnp53 cell line; NCI-H460dnp53, 0.33 uM, single agent, previously determined)
1 | 1.9 | 7 | 3.4 | 6 | 1.7 | > 30 | 3.8 | 4.4 | CC1CN(CC(=O)Nc2ccc3c(c2)Cc2cccc(-c4cc(=O)cc(N5CCOCC5)o4)c2S3)CC(C)O1 (stereo not shown) [ATM inhibitor, 2-[(2,6)-2,6-dimethylmorpholin-4-yl]-N-[5-(6-morpholin-4-yl-4-oxo-4H-pyran-2-yl)-9H-thioxanthen-2-yl]acetamide] |  | 
2 |  |  |  |  |  |  |  |  | NC(=O)Nc1cc(-c2cccc(F)c2)sc1C(=O)N[C@H]1CCCNC1 [CHK inhibitor, 5-(3-Fluoro-phenyl)-3-ureido-thiophene-2-carboxylic acid (S)-piperidin-3-ylamide] | no activity | no activity
